The results in this text go back to BindingDB's records for doi:10.1021/jm00078a018 (Merck Research Laboratories, 1994).

SMILES strings stand for the structures.

This test can be described thus: Inhibition of binding of [125I]-CCK-8 to the cholecystokinin type B receptor.

On to `O=C(Nc1ccc(Cl)cc1)NC1N=C(c2ccccc2)c2ccccc2N(CC(=O)N2CCCC2)C1=O` (stereo not drawn), for which the IC50 came to 1.6 nM. In other words, the single-digit nanomolar range.
Next, `CN1C(=O)[C@H](NC(=O)c2ccc(C(F)(F)F)cc2)N=C(c2ccccc2)c2ccccc21`: 3300 nM.
`O=C(Nc1ccc(Cl)cc1)N[C@H]1N=C(c2ccccc2)c2ccccc2N(CC(=O)N2CCCC2)C1=O` yielded an IC50 of 13 nM.
Compound `CN1C(=O)[C@H](NC(=O)Nc2cccc(I)c2)N=C(c2ccccc2)c2ccccc21` came in with an IC50 of 6.9 nM.
Next, `CN1C(=O)[C@@H](NC(=O)c2ccc(C(F)(F)F)cc2)N=C(c2ccccc2)c2ccccc21`: 4600 nM; `COc1cccc(NC(=O)N[C@@H]2N=C(c3ccccc3)c3ccccc3N(C)C2=O)c1`: 2.2 nM; `CN1C(=O)[C@H](NC(=O)Nc2cccc(N)c2)N=C(c2ccccc2)c2ccccc21`: 33 nM.
Then `CN1C(=O)[C@H](NC(=O)NCc2cccc(O)c2)N=C(c2ccccc2)c2ccccc21`, with 19 nM.
Next, `CC(=O)Oc1cccc(NC(=O)N[C@@H]2N=C(c3ccccc3)c3ccccc3N(C)C2=O)c1`: 500 nM.
The compound `CN1C(=O)[C@H](NC(=O)Nc2cccc(O)c2)N=C(c2ccccc2)c2ccccc21` came in with an IC50 of 15 nM.
Next, `C=Cc1cccc(NC(=O)N[C@@H]2N=C(c3ccccc3)c3ccccc3N(C)C2=O)c1`: 35 nM; `CN1C(=O)[C@H](NC(=O)Nc2cccc(CN)c2)N=C(c2ccccc2)c2ccccc21`: 719 nM; `CN1C(=O)[C@H](NC(=O)Nc2ccccc2Cl)N=C(c2ccccc2)c2ccccc21`: 61 nM.
Next, `COc1cccc(NC(=O)N[C@H]2N=C(c3ccccc3)c3ccccc3N(C)C2=O)c1`: 300 nM; `Cc1cccc(NC(=O)N[C@@H]2N=C(c3ccccc3)c3ccccc3NC2=O)c1`: 40 nM; `CN1C(=O)[C@@H](NC(=O)Nc2ccccc2Cl)N=C(c2ccccc2)c2ccccc21`: 280 nM.
Then `CN1C(=O)[C@H](NC(=O)Nc2cccc(Br)c2)N=C(c2ccccc2)c2ccccc21`, with 3.8 nM.
`CN1C(=O)[C@H](NC(=O)Nc2cccc(Cl)c2)N=C(c2ccccc2)c2ccccc21` came in with an IC50 of 7.5 nM.
As to `O=C(Nc1ccc(Cl)cc1)N[C@@H]1N=C(c2ccccc2)c2ccccc2N(CC(=O)N2CCCC2)C1=O`, the IC50 was found to be 1.4 nM.
`Cc1cccc(NC(=O)NC2N=C(c3ccccc3)c3ccccc3N(CC(=O)N3CC[N+](C)(C)CC3)C2=O)c1` (stereo not drawn) [1,1-Dimethyl-4-{2-[2-oxo-5-phenyl-3-(3-m-tolyl-ureido)-2,3-dihydro-benzo[e][1,4]diazepin-1-yl]-acetyl}-piperazin-1-ium; iodide] returned an IC50 of 58 nM.
Then `C[C@H](NC(=O)NC1N=C(c2ccccc2)c2ccccc2N(C)C1=O)c1ccccc1` (stereo partly drawn) [1-(1-Methyl-2-oxo-5-phenyl-2,3-dihydro-1H-benzo[e][1,4]diazepin-3-yl)-3-(1-phenyl-ethyl)-urea], with 11000 nM.
Then `CN1C(=O)C(NC(=O)Nc2ccccc2[N+](=O)[O-])N=C(c2ccccc2)c2ccccc21` (stereo not drawn) [1-(1-Methyl-2-oxo-5-phenyl-2,3-dihydro-1H-benzo[e][1,4]diazepin-3-yl)-3-(2-nitro-phenyl)-urea], with 1200 nM; and `CN1C(=O)C(NC(=O)Nc2cccc([N+](=O)[O-])c2)N=C(c2ccccc2)c2ccccc21` (stereo not drawn) [1-(1-Methyl-2-oxo-5-phenyl-2,3-dihydro-1H-benzo[e][1,4]diazepin-3-yl)-3-(3-nitro-phenyl)-urea], with 11 nM.
Consider `CN1C(=O)C(NC(=O)Nc2cccc(C(F)(F)F)c2)N=C(c2ccccc2)c2ccccc21` (stereo not drawn) [1-(1-Methyl-2-oxo-5-phenyl-2,3-dihydro-1H-benzo[e][1,4]diazepin-3-yl)-3-(3-trifluoromethyl-phenyl)-urea], for which the IC50 is 3.8 nM.
Then `CN1C(=O)C(NC(=O)Nc2ccc([N+](=O)[O-])cc2)N=C(c2ccccc2)c2ccccc21` (stereo not drawn) [1-(1-Methyl-2-oxo-5-phenyl-2,3-dihydro-1H-benzo[e][1,4]diazepin-3-yl)-3-(4-nitro-phenyl)-urea], with 46 nM; and `CN1C(=O)C(NC(=O)Nc2ccc(C(F)(F)F)cc2)N=C(c2ccccc2)c2ccccc21` (stereo not drawn) [1-(1-Methyl-2-oxo-5-phenyl-2,3-dihydro-1H-benzo[e][1,4]diazepin-3-yl)-3-(4-trifluoromethyl-phenyl)-urea], with 5.7 nM.
The compound `CN1C(=O)C(NC(=O)Nc2cccc3ccccc23)N=C(c2ccccc2)c2ccccc21` (stereo not drawn) [1-(1-Methyl-2-oxo-5-phenyl-2,3-dihydro-1H-benzo[e][1,4]diazepin-3-yl)-3-naphthalen-1-yl-urea] registered a concentration for half-maximal inhibition (IC50) of 79 nM.
Then `CN1C(=O)C(NC(=O)Nc2ccccc2)N=C(c2ccccc2)c2ccccc21` (stereo not drawn) [1-(1-Methyl-2-oxo-5-phenyl-2,3-dihydro-1H-benzo[e][1,4]diazepin-3-yl)-3-phenyl-urea], with 32 nM.
Regarding `CN1C(=O)C(NC(=O)Nc2ccccn2)N=C(c2ccccc2)c2ccccc21` (stereo not drawn) [1-(1-Methyl-2-oxo-5-phenyl-2,3-dihydro-1H-benzo[e][1,4]diazepin-3-yl)-3-pyridin-2-yl-urea], the IC50 was 337 nM.
Next, `CN1C(=O)C(NC(=O)Nc2cccnc2)N=C(c2ccccc2)c2ccccc21` (stereo not drawn) [1-(1-Methyl-2-oxo-5-phenyl-2,3-dihydro-1H-benzo[e][1,4]diazepin-3-yl)-3-pyridin-3-yl-urea]: 310 nM.
`CN1C(=O)C(NC(=O)Nc2ccncc2)N=C(c2ccccc2)c2ccccc21` (stereo not drawn) [1-(1-Methyl-2-oxo-5-phenyl-2,3-dihydro-1H-benzo[e][1,4]diazepin-3-yl)-3-pyridin-4-yl-urea] gave an IC50 of 1070 nM.
Next, `CN1C(=O)C(NC(=O)Nc2ccc3ccccc3n2)N=C(c2ccccc2)c2ccccc21` (stereo not drawn) [1-(1-Methyl-2-oxo-5-phenyl-2,3-dihydro-1H-benzo[e][1,4]diazepin-3-yl)-3-quinolin-2-yl-urea]: 26 nM.
Then `CN1C(=O)C(NC(=O)Nc2ccc3ncccc3c2)N=C(c2ccccc2)c2ccccc21` (stereo not drawn) [1-(1-Methyl-2-oxo-5-phenyl-2,3-dihydro-1H-benzo[e][1,4]diazepin-3-yl)-3-quinolin-6-yl-urea], with 52 nM; and `Cc1cccc(NC(=O)NC2N=C(c3ccccc3)c3cnccc3N(C)C2=O)c1` (stereo not drawn) [1-(1-Methyl-2-oxo-5-phenyl-2,3-dihydro-1H-pyrido[4,3-e][1,4]diazepin-3-yl)-3-m-tolyl-urea], with 632 nM; and `Cc1cccc(NC(=O)NC2N=C(c3cccnc3)c3ccccc3N(C)C2=O)c1` (stereo not drawn) [1-(1-Methyl-2-oxo-5-pyridin-3-yl-2,3-dihydro-1H-benzo[e][1,4]diazepin-3-yl)-3-m-tolyl-urea], with 92 nM.
`Cc1cccc(NC(=O)NC2N=C(c3ccncc3)c3ccccc3N(C)C2=O)c1` (stereo not drawn) [1-(1-Methyl-2-oxo-5-pyridin-4-yl-2,3-dihydro-1H-benzo[e][1,4]diazepin-3-yl)-3-m-tolyl-urea] yielded an IC50 of 52 nM.
Next, `CN1C(=O)C(NC(=O)Nc2ccc(Cl)cc2Cl)N=C(c2ccccc2)c2ccccc21` (stereo not drawn) [1-(2,4-Dichloro-phenyl)-3-(1-methyl-2-oxo-5-phenyl-2,3-dihydro-1H-benzo[e][1,4]diazepin-3-yl)-urea]: 220 nM; `COc1ccccc1NC(=O)NC1N=C(c2ccccc2)c2ccccc2N(C)C1=O` (stereo not drawn) [1-(2-Methoxy-phenyl)-3-(1-methyl-2-oxo-5-phenyl-2,3-dihydro-1H-benzo[e][1,4]diazepin-3-yl)-urea]: 1200 nM.
In turn, `COC(=O)[C@H]1CCCN1OC(=O)CN1C(=O)C(NC(=O)Nc2cccc(OC)c2)N=C(c2ccccc2)c2ccccc21` (stereo partly drawn) [1-(2-{3-[3-(3-Methoxy-phenyl)-ureido]-2-oxo-5-phenyl-2,3-dihydro-benzo[e][1,4]diazepin-1-yl}-acetoxy)-pyrrolidine-2-carboxylic acid methyl ester] showed an IC50 of 9.7 nM.
Then `CN1C(=O)C(NC(=O)Nc2ccc(Cl)c(Cl)c2)N=C(c2ccccc2)c2ccccc21` (stereo not drawn) [1-(3,4-Dichloro-phenyl)-3-(1-methyl-2-oxo-5-phenyl-2,3-dihydro-1H-benzo[e][1,4]diazepin-3-yl)-urea], with 67 nM; and `Cc1ccc(NC(=O)NC2N=C(c3ccccc3)c3ccccc3N(C)C2=O)cc1C` (stereo not drawn) [1-(3,4-Dimethyl-phenyl)-3-(1-methyl-2-oxo-5-phenyl-2,3-dihydro-1H-benzo[e][1,4]diazepin-3-yl)-urea], with 22 nM; and `COc1cc(NC(=O)NC2N=C(c3ccccc3)c3ccccc3N(C)C2=O)cc(OC)c1` (stereo not drawn) [1-(3,5-Dimethoxy-phenyl)-3-(1-methyl-2-oxo-5-phenyl-2,3-dihydro-1H-benzo[e][1,4]diazepin-3-yl)-urea], with 2300 nM.
Take `Cc1cc(C)cc(NC(=O)NC2N=C(c3ccccc3)c3ccccc3N(C)C2=O)c1` (stereo not drawn) [1-(3,5-Dimethyl-phenyl)-3-(1-methyl-2-oxo-5-phenyl-2,3-dihydro-1H-benzo[e][1,4]diazepin-3-yl)-urea]: the IC50 was determined as 267 nM. This IC50 is about 8.6-fold lower than that of the compound before.
For `CC(=O)c1cccc(NC(=O)NC2N=C(c3ccccc3)c3ccccc3N(C)C2=O)c1` (stereo not drawn) [1-(3-Acetyl-phenyl)-3-(1-methyl-2-oxo-5-phenyl-2,3-dihydro-1H-benzo[e][1,4]diazepin-3-yl)-urea], the IC50 is 4.8 nM.
Then `CN1C(=O)C(NC(=O)Nc2cccc(Br)c2)N=C(c2ccccc2)c2ccccc21` (stereo not drawn) [1-(3-Bromo-phenyl)-3-(1-methyl-2-oxo-5-phenyl-2,3-dihydro-1H-benzo[e][1,4]diazepin-3-yl)-urea], with 5 nM; and `CN1C(=O)C(NC(=O)Nc2cccc(Cl)c2)N=C(c2ccccc2)c2ccccc21` (stereo not drawn) [1-(3-Chloro-phenyl)-3-(1-methyl-2-oxo-5-phenyl-2,3-dihydro-1H-benzo[e][1,4]diazepin-3-yl)-urea], with 9.8 nM.
`CN1C(=O)C(NC(=O)Nc2cccc(C#N)c2)N=C(c2ccccc2)c2ccccc21` (stereo not drawn) [1-(3-Cyano-phenyl)-3-(1-methyl-2-oxo-5-phenyl-2,3-dihydro-1H-benzo[e][1,4]diazepin-3-yl)-urea] yielded an IC50 of 27 nM. Against the preceding compound, the IC50 is about 2.8-fold higher.
Then `C#Cc1cccc(NC(=O)NC2N=C(c3ccccc3)c3ccccc3N(C)C2=O)c1` (stereo not drawn) [1-(3-Ethynyl-phenyl)-3-(1-methyl-2-oxo-5-phenyl-2,3-dihydro-1H-benzo[e][1,4]diazepin-3-yl)-urea], with 22 nM.
